For this assay, the target named is IDH1 R132H (Homo sapiens (Human), UniProt O75874, R132H). Nature of the assay: Assays for IDH1 R132H Inhibitors (NADPH/aKG, resazurin detection). Type of assay: biochemical. The settings on record: IDH1 R132H enzyme, Table 2; read-out: IDHR132H Activity. An outline of the steps:
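Substrate mix held 8 uM NADPH plus 2 mM aKG; buffer was 20 mM Tris pH 7.5 with 150 mM NaCl, 10 mM MgCl2, 0.03% BSA. After 50 min room-temperature reaction, NADPH remaining was detected with 30 μM resazurin mix over 5 min.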
IDH1 R132H, sequence (O75874 whole entry R132H): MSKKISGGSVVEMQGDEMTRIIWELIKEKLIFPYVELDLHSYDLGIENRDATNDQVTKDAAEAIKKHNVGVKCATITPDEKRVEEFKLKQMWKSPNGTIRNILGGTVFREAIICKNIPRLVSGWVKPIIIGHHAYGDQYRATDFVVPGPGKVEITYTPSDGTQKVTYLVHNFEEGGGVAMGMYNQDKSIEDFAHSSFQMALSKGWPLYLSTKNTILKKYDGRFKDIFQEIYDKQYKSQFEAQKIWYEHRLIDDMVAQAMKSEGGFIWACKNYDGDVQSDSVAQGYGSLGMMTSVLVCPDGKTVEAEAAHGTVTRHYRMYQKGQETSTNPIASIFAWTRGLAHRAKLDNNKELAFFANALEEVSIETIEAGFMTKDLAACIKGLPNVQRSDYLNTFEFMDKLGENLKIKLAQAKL
Consider `COCCC(=O)N1C[C@H](C)N(c2nc(C3CC3)c3c(c2C#N)CC(C)(C)OC3)C[C@H]1C` [Compound 310, 8-cyclopropyl-6-((2S,5R)-4-(3-methoxypropanoyl)-2,5-dimethylpiperazin-1-yl)-3,3-dimethyl-3,4-dihydro-1H-pyrano[3,4-c]pyridine-5-carbonitrile], for which the IC50 fell in the range of 1000 to 10000 nM.
Regarding `CC(C)[C@@H]1CN(c2nc(C3CC3)c3c(c2C#N)CC(C)(C)OC3)CCN1C(=O)OCC1CC1` [Compound 370, (R)-cyclopropylmethyl 4-(5-cyano-8-cyclopropyl-3,3-dimethyl-3,4-dihydro-1H-pyrano[3,4-c]pyridine-6-yl)-2-isopropylpiperazine-1-carboxylate], the IC50 is 1000 to 10000 nM.
As for `C=CCNC(=O)N1CCN(c2nc(C3CCCCC3)c3c(c2C#N)CCOC3)CC1C(=O)OCC` (stereo not drawn) [Compound 330, ethyl 1-(allylcarbamoyl)-4-(5-cyano-8-cyclohexyl-3,4-dihydro-1H-pyrano[3,4-c]pyridin-6-yl)-piperazine-2-carboxylate], the figure is 1000 to 10000 nM; as for `CC(C)c1nc(N2CCN(C(=O)c3ccco3)CC2)c(C#N)c2c1CC(C)(C)CC2` [Compound 116, 3-(4-(furan-2-carbonyl)piperazin-1-yl)-1-isopropyl-7,7-dimethyl-5,6,7,8-tetrahydroisoquinoline-4-carbonitrile], 1000 to 10000 nM.
For `C=CCNC(=O)N1CCN(c2nc(C(C)C)c3c(c2C#N)CC(C)(C)OC3)CC1C(=O)OCC` (stereo not drawn) [Compound 331, ethyl 1-(allylcarbamoyl)-4-(5-cyano-8-isopropyl-3,3-dimethyl-3,4-dihydro-1H-pyrano[3,4-c]pyridin-6-yl)piperazine-2-carboxylate], the IC50 is 1000 to 10000 nM.
Regarding `C[C@@H]1CN(c2nc(C3CC3)c3c(c2C#N)CC(C)(C)OC3)CCN1C(=O)c1ccco1` [Compound 167], the IC50 is 1000 to 10000 nM.
The value for `N#Cc1c(N2CCN(C(=O)c3ccc4cc[nH]c4c3)CC2)nc(C2CCCCC2)c2c1CCOC2` [Compound 123, 6-(4-(1H-indole-6-carbonyl)piperazin-1-yl)-8-cyclohexyl-3,4-dihydro-1H-pyrano[3,4-c]pyridine-5-carbonitrile] was 1000 to 10000 nM.
As for `COC(=O)C1CN(c2nc(C3CC3)c3c(c2C#N)CC(C)(C)OC3)CCN1C(=O)c1ccoc1C` (stereo not drawn) [Compound 394, methyl 4-(5-cyano-8-cyclopropyl-3,3-dimethyl-3,4-dihydro-1H-pyrano[3,4-c]pyridin-6-yl)-1-(2-methylfuran-3-carbonyl)piperazine-2-carboxylate], the figure is 500 to 1000 nM; as for `COc1cccc(CC(=O)N2CCN(c3nc(C4CC4)c4c(c3C#N)CC(C)(C)OC4)C[C@H]2C(C)C)c1` [Compound 254], 500 to 1000 nM.
Regarding `CC(C)c1nc(N2CCN(C(=O)c3ccoc3)[C@H](c3ccccc3)C2)c(C#N)c2c1COC(C)(C)C2` [Compound 256, (R)-6-(4-(furan-3-carbonyl)-3-phenylpiperazin-1-yl)-8-isopropyl-3,3-dimethyl-3,4-dihydro-1H-pyrano[3,4-c]pyridine-5-carbonitrile], the IC50 fell in the range of 1000 to 10000 nM.
As for `CC(C)[C@@H]1CN(c2nc(C3CCCCC3)c3c(c2C#N)CCOC3)CCN1C(=O)c1ccco1` [Compound 182, (R)-8-cyclohexyl-6-(4-(furan-2-carbonyl)-3-isopropylpiperazin-1-yl)-3,4-dihydro-1H-pyrano[3,4-c]pyridine-5-carbonitrile], the figure is 1000 to 10000 nM.
In the case of `CC(C)[C@@H]1CN(c2nc(C3CC3)c3c(c2C#N)CC(C)(C)OC3)CCN1S(=O)(=O)c1cccs1` [Compound 284, (R)-8-cyclopropyl-6-(3-isopropyl-4-(thiophen-2-ylsulfonyl)piperazin-1-yl)-3,3-dimethyl-3,4-dihydro-1H-pyrano[3,4-c]pyridine-5-carbonitrile], the IC50 lay in the range of 1000 to 10000 nM.
On to `C[C@@H]1CN(c2nc(C3CCCCC3)c3c(c2C#N)CCOC3)C[C@H](C)N1C(=O)c1ccco1` [Compound 128, 8-cyclohexyl-6-((3S,5R)-4-(furan-2-carbonyl)-3,5-dimethylpiperazin-1-yl)-3,4-dihydro-1H-pyrano[3,4-c]pyridine-5-carbonitrile], for which the IC50 was in the range of 1000 to 10000 nM.
The value for `N#Cc1c(N2CCN(C(=O)c3ccco3)CC2)nc(C2CCCC2)c2c1CCOC2` [Compound 124, 8-cyclopentyl-6-(4-(furan-2-carbonyl)piperazin-1-yl)-3,4-dihydro-1H-pyrano[3,4-c]pyridine-5-carbonitrile] was 1000 to 10000 nM; that for `COc1ccc(OC(=O)N2CCN(c3nc(C(C)C)c4c(c3C#N)CCOC4)CC2)cc1` [Compound 103, 4-methoxyphenyl 4-(5-cyano-8-isopropyl-3,4-dihydro-1H-pyrano[3,4-c]pyridin-6-yl)piperazine-1-carboxylate] was 1000 to 10000 nM; that for `CCCOCC(=O)N1CCN(c2nc(C3CC3)c3c(c2C#N)CC(C)(C)OC3)C[C@H]1C(C)C` [Compound 381] was 500 to 1000 nM.
As for `COCCC(=O)N1CCN(c2nc(C3CC3)c3c(c2C#N)CC(C)(C)OC3)C[C@H]1C(C)C` [Compound 270, (R)-8-cyclopropyl-6-(3-isopropyl-4-(3-methoxypropanoyl)piperazin-1-yl)-3,3-dimethyl-3,4-dihydro-1H-pyrano[3,4-c]pyridine-5-carbonitrile], the figure is less than 500 nM; as for `CCc1nc(N2CCN(C(=O)c3ccoc3)[C@H](C(C)C)C2)c(C#N)c2c1COC(C)(C)C2` [Compound 414, (R)-8-ethyl-6-(4-(furan-3-carbonyl)-3-isopropylpiperazin-1-yl)-3,3-dimethyl-3,4-dihydro-1H-pyrano[3,4-c]pyridine-5-carbonitrile], 1000 to 10000 nM; as for `Cc1ncoc1C(=O)N1CCN(c2nc(C3CCCCC3)c3c(c2C#N)CCOC3)C[C@H]1C` [Compound 225, (R)-8-cyclohexyl-6-(3-methyl-4-(4-methyloxazole-5-carbonyl)piperazin-1-yl)-3,4-dihydro-1H-pyrano[3,4-c]pyridine-5-carbonitrile], 1000 to 10000 nM.
On to `Cc1occc1C(=O)N1CCN(c2nc(C3CC3)c3c(c2C#N)CC(C)(C)OC3)C[C@H]1C(C)C` [Compound 181], for which the IC50 was less than 500 nM.
As for `CC(C)c1nc(N2CC(C)N(C(=O)c3ccco3)CC2C)c(C#N)c2c1COCC2` (stereo not drawn) [Compound 114, 6-(4-(furan-2-carbonyl)-2,5-dimethylpiperazin-1-yl)-8-isopropyl-3,4-dihydro-1H-pyrano[3,4-c]pyridine-5-carbonitrile], the figure is 1000 to 10000 nM; as for `CC1(C)Cc2c(C#N)c(N3CCN(C(=O)c4ccco4)CC3)nc(C3CCCCC3)c2CO1` [Compound 117, 8-cyclohexyl-6-(4-(furan-2-carbonyl)piperazin-1-yl)-3,3-dimethyl-3,4-dihydro-1H-pyrano[3,4-c]pyridine-5-carbonitrile], 1000 to 10000 nM; as for `C[C@@H]1CN(c2nc(C3CCCCC3)c3c(c2C#N)CCOC3)CCN1C(=O)c1cnc2ccccn12` [Compound 227, (R)-8-cyclohexyl-6-(4-(imidazo[1,2-a]pyridine-3-carbonyl)-3-methylpiperazin-1-yl)-3,4-dihydro-1H-pyrano[3,4-c]pyridine-5-carbonitrile], 1000 to 10000 nM.
As for `C[C@@H]1CN(c2nc(C3CCCCC3)c3c(c2C#N)CCOC3)CCN1C(=O)C1CCOC1` (stereo partly drawn) [Compound 263, 8-cyclohexyl-6-((3R)-3-methyl-4-(tetrahydrofuran-3-carbonyl)piperazin-1-yl)-3,4-dihydro-1H-pyrano[3,4-c]pyridine-5-carbonitrile], the figure is 1000 to 10000 nM.

These data come from patent US9662327B2 (AGIOS PHARMACEUTICALS, INC, priority 2011, dated 2017).
